# Test results as given in US5560935A, “Physiologically active substances extracted from activated tissues” (Nippon Zoki Pharmaceutical Co., Ltd., priority 1993, dated 1996).
# Tested on: plasma kallikrein
# Assay: Inhibition of the production of plasma kallikrein (kaolin-activated plasma, synthetic substrate)
# Type: biochemical
# Details: normal human plasma, kaolin activation, substrate D-Pro-Phe-Arg-p-nitroaniline
# Experimental: The inhibitory action of the physiologically-active substance against the production of plasma kallikrein was measured according to a method described in Kiso to Rinsho, vol. 20, no. 17, pages 399-405 (1986).
# Thus, a suspension of kaolin was added to normal human plasma diluted with a physiologically saline solution. A lima bean trypsin inhibitor was added thereto after a certain period to stop the kallikrein procluction reaction. Then the resulting kallikrein was determined by using a synthetic substrate (D-Pro-Phe-Arg-p-nitroaniline). The test substance was placed in the above system whereby the inhibitory action of the test substance against the production of kallikrein was determined.
# In Table 1 the potency of the activity is given in terms of the concentration (IC50) at which the production of the plasma kallikrein was inhibited to an extent of 50%: […]
row,Compound,"IC50, concentration at which the production of the plasma kallikrein was inhibited to an extent of 50%"
1,CC(C)Cc1ccc(C(C)C(=O)O)cc1 (stereo not drawn) [Ibuprofen],700 micrograms/ml
2,CC(C(=O)O)c1cccc(C(=O)c2ccccc2)c1 (stereo not drawn) [Ketoprofen],400 micrograms/ml
3,CC(C)=CCN1CCC2(C)c3cc(O)ccc3CC1C2C (stereo not drawn) [Pentazocine],"1,600 micrograms/ml"
